The text below walks through data of article PMC10046377, “Inhibitors of the Oncogenic PA2G4-MYCN Protein-Protein Interface” (Cancers, 2023).

The subject of one experiment is Kelly cells. The experiment in a line: Colony formation assay, Kelly. The note with it: increasing concentrations, 2 weeks. The experiment is classed as cell-based, human. How it is done: A total of 250 SK-N-BE(2)-C and 500 Kelly cells were seeded in 6-well plates and treated with #5333 and #5338 24 h after seeding. Once colonies had formed (14 days for Kelly, 10 days for SK-N-BE(2)-C), cells were fixed and stained with 0.5% crystal violet in 50% methanol and washed twice to remove the unincorporated stain. The photos of colonies were taken by ChemiDoc MP Imaging System (Bio-Rad, South Granville, NSW, Australia). Stained colonies were counted, and colony size was measured using Image J software.
We treated human neuroblastoma tumour cell lines with high MYCN and PA2G4 expression (Kelly and SK-N-BE(2)-C), using increasing concentrations of #5333 or #5338, and measured the ability of cells to proliferate and form colonies in vitro over 2 weeks. […] Next, we evaluated cell replication using the BrdU uptake assay in response to 30 μM drug treatment for 48 h (Figure 2C).

The next experiment has as its system neuroblastoma cells. The experiment in a line: Annexin V/7-AAD flow cytometry apoptosis assay. The experiment is classed as cell-based, human. As to conditions: 48 h treatment. How it is done:
Neuroblastoma cell lines were seeded 24 h before treating with #5333 or #5338 for 48 h. The apoptotic and necrotic effects of the #5333 and #5338 treatment were determined by staining the cells with Annexin V PE/7-AAD using the Annexin V: PE Apoptosis Detection Kit (BD Biosciences, North Ryde, NSW, Australia), according to the manufacturer’s instruction. Stained cells were measured by flow cytometry using the BD LSRFortessa (BD Biosciences, NSW, Australia) and the data was analysed using the FlowJo software.
To determine if the drug effects led to apoptosis, we stained cells with annexin-V/7-AAD, a marker of early and late apoptotic events (Figure 2D). […] To confirm the apoptotic status of the cells, protein expression of key apoptotic markers PARP/Cleaved PARP, Caspase 3/Cleaved caspase 3, BCL2, and Bax was measured (Figure 2E).

The target in another experiment is T1, PA2G4 protein (Homo sapiens, UniProt Q9UQ80).
T1 sequence (Q9UQ80 1-394): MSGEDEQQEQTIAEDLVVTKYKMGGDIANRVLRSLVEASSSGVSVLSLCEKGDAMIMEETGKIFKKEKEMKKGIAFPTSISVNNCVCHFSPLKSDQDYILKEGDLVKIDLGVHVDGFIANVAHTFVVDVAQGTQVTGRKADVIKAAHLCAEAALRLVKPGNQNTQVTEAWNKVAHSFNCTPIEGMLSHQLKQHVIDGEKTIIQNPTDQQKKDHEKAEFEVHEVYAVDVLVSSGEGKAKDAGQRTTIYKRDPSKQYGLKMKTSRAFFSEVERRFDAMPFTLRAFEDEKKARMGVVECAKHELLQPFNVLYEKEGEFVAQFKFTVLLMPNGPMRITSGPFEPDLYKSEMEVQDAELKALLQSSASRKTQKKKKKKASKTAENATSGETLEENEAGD
The experiment in a line: Differential scanning fluorimetry of PA2G4. Details: made in house; host or cells: BL21 (DE3) E. coli. The experiment is classed as binding. The note with it: relative to DMSO control. The source says:
Seeking a further reduction of toxicity and improvements in physicochemical properties, we conducted a second in silico analogue screen using the structure of #3567. A further 33 compounds were purchased and assayed (Supplementary Figure S1C).

Turning to `Cc1cccc(Oc2cc(N3CCC(C(=O)NCc4cccc(Br)c4)CC3)ncn2)c1C` [#5333], the “colony number and size, Kelly” value in the experiment on Kelly cells was “decreased both the number and size of the colonies”. Besides, the “apoptosis (annexin-V/7-AAD)” value with neuroblastoma cells was “caused similar levels of apoptosis”. Further, the “melting temperature of PA2G4 (DSF)” value at PA2G4 protein was “increased the melting temperature”.

Regarding `Cc1cccc(Oc2cc(N3CCC(C(=O)N[C@@H](C)CCc4ccccc4)CC3)ncn2)c1C` [#5338], the “colony number and size, Kelly” value in the experiment with Kelly cells is “decreased both the number and size of the colonies”. Besides, the “apoptosis (annexin-V/7-AAD)” value in the experiment with neuroblastoma cells was “caused similar levels of apoptosis”. The “melting temperature of PA2G4 (DSF)” value on PA2G4 protein is “increased the melting temperature”.
